# Results reported in paper PMC11272598, “RG7774 (Vicasinabin), an orally bioavailable cannabinoid receptor 2 (CB2R) agonist, decreases retinal vascular permeability, leukocyte adhesion, and ocular inflammation in animal models” (Frontiers in Pharmacology, 2024).
# Columns and labels:
# [1] = target: human CB1R (Homo sapiens, UniProt P21554); experiment: Competition binding, [^3H]-CP55940, CHO cell membranes; set-up: expressed in transfected cells; host or cells: CHO cells (membranes); conditions: CHO cells
# Method: (§1) Competition and saturation binding assays were performed using the radiolabeled CB1R/CB2R agonist [^3H]-CP55940 (PerkinElmer, Waltham, MA, United States) in recombinant cell systems, and the newly developed CB2R-selective agonist [^3H]-RO6753361 ([Chicca et al., 2024]) in cells expressing endogenous CB1R/CB2R. Competition assays were conducted by incubating 5, 40, or 40 µg of membrane protein from CHO cells, Jurkat cells or spleen cells, respectively, with 1.5 nM [^3H]-CP55940 or 1.5 nM [^3H]-RO6753361 in the presence or absence of increasing concentrations of ligand (RG7774 or control) for 2 h at 30°C in a final volume of 0.2 mL of assay buffer (50 mmol/L Tris-HCl, 5 mmol/L MgCl2, 2.5 mmol/L EDTA, and 0.5% fatty acid-free BSA [pH 7.4] and 1% DMSO), with gentle shaking. Saturation binding assays were conducted by incubating 1–3 μg, 40 μg, or 30–40 μg of membrane protein from CHO cells, Jurkat cells, or spleen tissue, respectively, with 12 concentrations in the range of 80–0.039 nM [^3H]-CP55940 or [^3H]-RO6753361 for 2 h at 30°C in a final volume of 0.2 mL/well of assay buffer without DMSO. […] IC50 values and Hill slopes were determined with a 4-parameter logistic model using ActivityBase (ID Business Solution, Guilford, United Kingdom) and pKi values were determined using the Cheng-Prusoff equation ([Cheng and Prusoff, 1973]).
# [2] = system: sigma (non-selective) (h); experiment: CEREP radioligand binding; set-up: species or system human; conditions: radioligand [^3H]-DTG
# Text: Supplement Table1.docx, table 3: Supplementary Table S3. RG7774 binding to non-CB1R/CB2R receptors, ion channels, transporters, and enzymes (CEREP, Celle l’Evescault, France; http://www.cerep.fr). | column: % inhibition of control SB (n = 2)
# [3] = target: T1, Human 15-LOX (Homo sapiens, UniProt O15296); experiment: Human 15-LOX assay; format: biochemical; conditions: RG7774 10 µM; read-out: Mean ± SEM % inhibition of control, Human 15-LOX
# T1 construct: purchased Cayman Chemical Company #10011263
# Method: The inhibitory effects of different concentrations of RG7774 (0.1-500 µM) on the activities of human recombinant 5-LOX (Cayman Chemical Company #60402), 15-LOX (Cayman Chemical Company #10011263), and human platelet-derived 12-LOX were determined using the Biovision Lipoxygenase Activity Assay Kit (#BVN-K978-100). This kit converts the LOX substrate to an intermediate that reacted with the probe, generating a fluorescent product. The effect of RG7774 (preincubated for 15 min) at 10 µM on LOXs (5-LOX: 0.5 or 1.2 µg; 12-LOX: 20 µg; 15-LOX: 0.23 or 0.3 µg) was ascertained by adding the compounds directly to the incubation medium and the fluorescent signal, recorded at excitation/emission 500/536 nm at 30 sec intervals for 30-40 min, was directly proportional to LOX activity. […] The percentage of human 5-, 12-, and 15-LOX activity (control) was estimated from the amount of oxidized probe in the reaction using a standard curve.
# [4] = target: T2, human CB2R (Homo sapiens, UniProt P34972); experiment: Competition binding, [^3H]-CP55940, CHO cell membranes; conditions: competition binding assays
# T2 construct: bgal (beta-galactosidase fragment of the PathHunter system); host or cells: CHO-K1
# Method: as §1
# [5] = system: LPS-induced leukocyte adhesion; experiment: LPS-induced leukocyte adhesion in rats with EIU (IVM); format: in vivo, Lewis rats; conditions: IV 1.0 mg/kg, 6 h after LPS
# Method: Male BALB/c mice aged 8–10 weeks and weighing 21–26 g (Charles River, QC, Canada) were housed in individually ventilated Allentown cages (Allentown Inc., NJ, United States). Maximum density was n = 5 per cage, with the same litter and sex. Male Lewis rats aged 7–10 weeks and weighing 200–300 g (Charles River, QC, Canada) were housed in static cages (Allentown Inc., NJ, United States), n = 2 per cage with the same litter and sex. Both mice and rats were maintained in a controlled environment (21°C–22°C, humidity range 40%–60%, and a 12 h light/dark cycle), with unrestricted access to food and water. All experiments were conducted in accordance with the standards and procedures of the Canadian Council on Animal Care ([CCAC, 2024]) and were approved by the Dalhousie University Committee on Laboratory Animals. The protocol #13-027 was approved for experimental work in mice. […] All experiments were performed and are reported in accordance with the ARRIVE guidelines ([Kilkenny et al., 2010]; [McGrath et al., 2010]). […]
# IVM was used for in vivo investigations of LPS-induced leukocyte recruitment as previously described ([Toguri et al., 2014]). […] The depth of anesthesia throughout the procedure was assessed by the absence of a toe-pinch reflex. […]
# T2 sequence (P34972 whole entry, the tested form may be a part): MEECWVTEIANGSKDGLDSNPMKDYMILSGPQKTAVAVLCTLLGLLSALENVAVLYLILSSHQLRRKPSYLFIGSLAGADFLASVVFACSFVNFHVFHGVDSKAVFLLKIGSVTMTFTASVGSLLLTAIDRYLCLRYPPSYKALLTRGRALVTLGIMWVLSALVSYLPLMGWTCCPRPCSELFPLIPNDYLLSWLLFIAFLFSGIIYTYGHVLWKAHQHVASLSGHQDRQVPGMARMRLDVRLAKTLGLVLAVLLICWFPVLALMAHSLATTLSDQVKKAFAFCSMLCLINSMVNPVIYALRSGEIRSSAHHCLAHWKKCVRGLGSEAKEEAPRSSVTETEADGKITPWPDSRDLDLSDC
# Chain of human CB1R (P21554 whole entry): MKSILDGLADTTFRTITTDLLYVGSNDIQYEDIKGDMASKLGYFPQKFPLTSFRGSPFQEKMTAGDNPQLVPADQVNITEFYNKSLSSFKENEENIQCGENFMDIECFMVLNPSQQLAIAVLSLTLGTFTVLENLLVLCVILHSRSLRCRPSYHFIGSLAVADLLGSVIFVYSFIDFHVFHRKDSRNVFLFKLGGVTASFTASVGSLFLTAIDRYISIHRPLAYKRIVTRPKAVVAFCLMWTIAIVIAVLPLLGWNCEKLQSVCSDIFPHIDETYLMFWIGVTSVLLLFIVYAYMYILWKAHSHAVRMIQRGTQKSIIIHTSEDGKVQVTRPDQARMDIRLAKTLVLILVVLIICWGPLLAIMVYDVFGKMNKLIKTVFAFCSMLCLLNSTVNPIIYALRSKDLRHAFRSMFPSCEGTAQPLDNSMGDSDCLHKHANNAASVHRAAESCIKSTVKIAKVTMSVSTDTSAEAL
# T1 sequence (O15296 whole entry): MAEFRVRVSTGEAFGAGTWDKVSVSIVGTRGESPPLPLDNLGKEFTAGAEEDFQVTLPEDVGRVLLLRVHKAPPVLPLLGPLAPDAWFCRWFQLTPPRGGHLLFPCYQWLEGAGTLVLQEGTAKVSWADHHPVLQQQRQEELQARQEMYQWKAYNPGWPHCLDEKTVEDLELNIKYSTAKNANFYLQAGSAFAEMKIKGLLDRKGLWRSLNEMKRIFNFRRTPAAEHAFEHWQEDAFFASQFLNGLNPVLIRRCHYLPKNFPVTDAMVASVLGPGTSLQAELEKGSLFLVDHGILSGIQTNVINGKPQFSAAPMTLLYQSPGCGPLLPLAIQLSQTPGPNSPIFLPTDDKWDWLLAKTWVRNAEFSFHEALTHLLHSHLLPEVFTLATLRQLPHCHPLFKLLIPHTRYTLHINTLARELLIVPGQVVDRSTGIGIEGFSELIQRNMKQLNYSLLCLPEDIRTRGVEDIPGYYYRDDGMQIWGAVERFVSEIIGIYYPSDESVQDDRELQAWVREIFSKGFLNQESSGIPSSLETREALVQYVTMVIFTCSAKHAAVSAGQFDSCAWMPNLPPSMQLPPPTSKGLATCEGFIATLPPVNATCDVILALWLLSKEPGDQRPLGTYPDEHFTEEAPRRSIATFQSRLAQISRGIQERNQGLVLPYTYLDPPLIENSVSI
smiles,measurement,setting,value
"Cn1nnnc1Cn1nnc2c(N3CC[C@H](O)C3)nc(C(C)(C)C)nc21 [RG7774, (S)-1-(5-tert-butyl-3-[(1-methyl-1H-tetrazol-5-yl)methyl]-3H-[1,2,3]triazolo[4,5-d]pyrimidin-7-yl)pyrrolidin-3-ol]",binding to recombinant human CB1R,[1],no binding
same,% inhibition of control SB (n = 2),[2],–8.2%
same,inhibition at 10 µM,[3],-8.7%
same,binding selectivity for recombinant human CB2R over CB1R,[4],> 195 fold
same,decrease in leukocyte adhesion compared to vehicle control,[5],60%
